Legend:
FLT3-ITD = target: T1, FLT3-ITD (Homo sapiens, UniProt P36888, DUP595-601); assay: FLT3-ITD Lance Ultra TR-FRET kinase assay; type: biochemical
T1 construct: purchased Signalchem F-12-12CG-10
T1 sequence (P36888 with tags, fused parts or gaps DUP595-601 limits assumed): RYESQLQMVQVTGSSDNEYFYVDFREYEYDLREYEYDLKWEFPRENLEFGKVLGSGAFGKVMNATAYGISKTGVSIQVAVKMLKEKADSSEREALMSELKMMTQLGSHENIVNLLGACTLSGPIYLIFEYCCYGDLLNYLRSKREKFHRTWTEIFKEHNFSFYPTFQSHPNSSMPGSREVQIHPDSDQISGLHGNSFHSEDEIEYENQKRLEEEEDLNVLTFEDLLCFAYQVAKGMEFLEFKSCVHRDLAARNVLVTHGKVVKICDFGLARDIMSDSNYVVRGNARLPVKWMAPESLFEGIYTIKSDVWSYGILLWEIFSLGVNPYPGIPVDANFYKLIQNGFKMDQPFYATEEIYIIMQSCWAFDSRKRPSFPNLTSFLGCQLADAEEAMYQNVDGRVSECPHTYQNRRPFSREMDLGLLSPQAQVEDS
How it was run: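 Lance Ultra TR-FRET with 50 nM ULight-JAK-1 (Tyr1023) peptide, Eu-anti-phosphotyrosine (PT66) detection, in HEPES pH 7.5 buffer at 23° C, 30 min enzyme/compound preincubation. WT: 0.5 nM enzyme, 100 μM ATP, 30 min; ITD: 0.0625 nM, 50 μM ATP, 60 min. IC50 by four-parameter fit of 11-point 3× dilutions.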

MV-4-11 = assay: Proliferation inhibition, CellTiter-Glo, MV-4-11; type: cell-based, human; conditions: Homo sapiens, MV4-11, 96 h; MV-4:11 cells, IC50 (4 days), CellTiter-Glo; read-out: MV-4:11 IC50
How it was run: (§1)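 About 10,000 cells per well in RPMI-1640 with 10% FBS. Compounds added 2 h after seeding at eight concentrations in duplicate (0.2% DMSO as 100% proliferation), then incubated ~96 h at 37° C, 5% CO2. ATP measured by CellTiter-Glo luminescence; IC50 from four-parameter logistic fit.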

K-562 = assay: Proliferation inhibition, CellTiter-Glo, K-562; type: cell-based, human; conditions: Homo sapiens, K562, 96 h; K-562 cells, IC50 (4 days), CellTiter-Glo; read-out: K-562 IC50
How it was run: as §1

Structure (SMILES) | IC50 (FLT3-ITD) | IC50 (MV-4-11) | IC50 (K-562)
CCc1nc(C(N)=O)c(Nc2cccc([C@@H](C)CNC(=O)CN(C)C(=O)/C=C/CN3CCC3)c2)nc1C1CC1 [Compound 506, (R,E)-3-((3-(1-(2-(4-(azetidin-1-yl)-N-methylbut-2-enamido)acetamido)propan-2-yl)phenyl)amino)-5-cyclopropyl-6-ethylpyrazine-2-carboxamide] | 0.201 to 0.5 nM | 1 to 10 nM | > 500 nM
CCCc1nc(Nc2cccc([C@@H](C)CNC(=O)CN(C)C(=O)/C=C/CN3CCC3)c2)c(C(N)=O)nc1CC [Compound 507, (R,E)-3-((3-(1-(2-(4-(azetidin-1-yl)-N-methylbut-2-enamido)acetamido)propan-2-yl)phenyl)amino)-6-ethyl-5-propylpyrazine-2-carboxamide] | 0.201 to 0.5 nM | 1 to 10 nM | > 500 nM
CCc1nc(Nc2cccc([C@@H](C)CNC(=O)CN(C)C(=O)/C=C/CN3CCC3)c2)c(C(N)=O)nc1CC [Compound 508, (R, E)-3-((3-(1-(2-(4-(azetidin-1-yl)-N-methylbut-2-enamido)acetamido)propan-2-yl)phenyl)amino)-5,6-diethylpyrazine-2-carboxamide] | 0.501 to 1 nM | > 500 nM | > 500 nM
CCc1nc(C(N)=O)c(Nc2cc(F)cc(CCNC(=O)CN(C)C(=O)/C=C/CN3CCC3)c2)nc1C1CC1 [Compound 516, (E)-3-((3-(2-(2-(4-(azetidin-1-yl)-N-methylbut-2-enamido)acetamido)ethyl)-5-fluorophenyl)amino)-5-cyclopropyl-6-ethylpyrazine-2-carboxamide] | 0.101 to 0.2 nM | 1 to 10 nM | > 500 nM
CCOc1nc(Nc2cccc(CCNC(=O)CN(C)C(=O)/C=C/CN3CCC3)c2)c(C(N)=O)nc1CC [Compound 602, (E)-3-((3-(2-(2-(4-(azetidin-1-yl)-N-methylbut-2-enamido)acetamido)ethyl)phenyl)amino)-5-ethoxy-6-ethylpyrazine-2-carboxamide] | 0.201 to 0.5 nM | < 1 nM | > 500 nM
CCc1nc(C(N)=O)c(Nc2cccc(CCNC(=O)CN(C)C(=O)/C=C/CN3CCC3)c2)nc1OC(C)C [Compound 603, (E)-3-((3-(2-(2-(4-(azetidin-1-yl)-N-methylbut-2-enamido)acetamido)ethyl)phenyl)amino)-6-ethyl-5-isopropoxypyrazine-2-carboxamide] | 0.201 to 0.5 nM | < 1 nM | > 500 nM
CCc1nc(C(N)=O)c(Nc2ccnc(CCNC(=O)[C@H](C)N(C)C(=O)/C=C/CN(C)C)c2)nc1N(C)C(C)C [Compound 605, (S, E)-3-((2-(2-(2-(4-(dimethylamino)-N-methylbut-2-enamido)propanamido)ethyl)pyridin-4-yl)amino)-6-ethyl-5-(isopropyl (methyl)amino) pyrazine-2-carboxamide] | 0.201 to 0.5 nM | < 1 nM | > 500 nM
CCc1nc(C(N)=O)c(Nc2ccc(N3CCC(N4CCN(C)CC4)CC3)c(OC)c2)nc1NC1CCOCC1 [Gilteritinib, gilteritinib, reference compound] | – | 1 to 10 nM | 100 to 500 nM

The remaining lines, values ahead:

IC50 (FLT3-ITD) | IC50 (MV-4-11) | IC50 (K-562) | Structure (SMILES)
0.101 to 0.2 nM | < 1 nM | > 500 nM | CCc1nc(C(N)=O)c(Nc2cccc(CCNC(=O)[C@H](C)N(C)C(=O)/C=C/CN(C)C)c2)nc1N(C)C(C)C [Compound 204, (S,E)-3-((3-(2-(2-(4-(dimethylamino)-N-methylbut-2-enamido)propanamido)ethyl)phenyl)amino)-6-ethyl-5-(isopropyl(methyl)amino)pyrazine-2-carboxamide]
0.101 to 0.2 nM | < 1 nM | > 500 nM | CCc1nc(C(N)=O)c(Nc2cccc(CCNC(=O)[C@H](C)N(C)C(=O)/C=C/CN(C)C)c2)nc1NC(C)C [Compound 205, (S,E)-3-((3-(2-(2-(4-(dimethylamino)-N-methylbut-2-enamido)propanamido)ethyl)phenyl)amino)-6-ethyl-5-(isopropylamino)pyrazine-2-carboxamide]
– | < 1 nM | > 500 nM | CCc1nc(C(N)=O)c(Nc2cccc(CCNC(=O)CN(C)C(=O)/C=C/CN(C)C)c2)nc1C1CC1 [Compound 219, (E)-5-cyclopropyl-3-((3-(2-(2-(4-(dimethylamino)-N-methylbut-2-enamido)acetamido)ethyl)phenyl)amino)-6-ethylpyrazine-2-carboxamide]
0.501 to 1 nM | < 1 nM | > 500 nM | Cc1nc(C(N)=O)c(Nc2cccc(CCNC(=O)[C@H](C)N(C)C(=O)/C=C/CN(C)C)c2)nc1N(C)C(C)C [Compound 232, (S, E)-3-((3-(2-(2-(4-(dimethylamino)-N-methylbut-2-enamido)propanamido)ethyl)phenyl)amino)-5-(isopropyl (methyl)amino)-6-methylpyrazine-2-carboxamide]
0.201 to 0.5 nM | < 1 nM | > 500 nM | Cc1nc(C(N)=O)c(Nc2cccc(CCNC(=O)CN(C)C(=O)/C=C/CN(C)C)c2)nc1N(C)C(C)C [Compound 250, (E)-3-((3-(2-(2-(4-(dimethylamino)-N-methylbut-2-enamido)acetamido)ethyl)phenyl)amino)-5-(isopropyl(methyl)amino)-6-methylpyrazine-2-carboxamide]
0.101 to 0.2 nM | < 1 nM | > 500 nM | CCc1nc(C(N)=O)c(Nc2cccc(CCNC(=O)CN(C)C(=O)/C=C/CN(C)C)c2)nc1N(C)CC [Compound 252, (E)-3-((3-(2-(2-(4-(dimethylamino)-N-methylbut-2-enamido)acetamido)ethyl)phenyl)amino)-6-ethyl-5-(ethyl (methyl)amino) pyrazine-2-carboxamide]
0.201 to 0.5 nM | < 1 nM | – | CCc1nc(C(N)=O)c(Nc2cccc(CCNC(=O)[C@H](C)N(C)C(=O)/C=C/CNC)c2)nc1N(C)C(C)C [Compound 307, (S,E)-6-ethyl-5-(isopropyl(methyl)amino)-3-((3-(2-(2-(N-methyl-4-(methylamino)but-2-enamido)propanamido)ethyl)phenyl)amino)pyrazine-2-carboxamide]
0.501 to 1 nM | < 1 nM | > 500 nM | CCc1nc(C(N)=O)c(Nc2ccnc(CCNC(=O)[C@H](C)N(C)C(=O)/C=C/CN(C)C)c2)nc1C1CC1 [Compound 310, (S,E)-5-cyclopropyl-3-((2-(2-(2-(4-(dimethylamino)-N-methylbut-2-enamido)propanamido)ethyl)pyridin-4-yl)amino)-6-ethylpyrazine-2-carboxamide]
– | < 1 nM | > 500 nM | CCc1nc(C(N)=O)c(Nc2cccc([C@@H](C)CNC(=O)CN(C)C(=O)/C=C/CN(C)C)c2)nc1C1CC1 [Compound 504, (R,E)-5-cyclopropyl-3-((3-(1-(2-(4-(dimethylamino)-N-methylbut-2-enamido)acetamido)propan-2-yl)phenyl)amino)-6-ethylpyrazine-2-carboxamide]
0.101 to 0.2 nM | < 1 nM | > 500 nM | CCc1nc(C(N)=O)c(Nc2cccc(CCNC(=O)CN(C)C(=O)/C=C/CN3CCC3)c2)nc1N(C)CC [Compound 516A, (E)-3-((3-(2-(2-(4-(azetidin-1-yl)-N-methylbut-2-enamido)acetamido)ethyl)phenyl)amino)-6-ethyl-5-(ethyl(methyl)amino) pyrazine-2-carboxamide]
0.101 to 0.2 nM | < 1 nM | > 500 nM | CCc1nc(C(N)=O)c(Nc2cccc([C@@H](C)CNC(=O)CN(C)C(=O)/C=C/CN3CCC3)c2)nc1N(C)CC [Compound 518, (R,E)-3-((3-(1-(2-(4-(azetidin-1-yl)-N-methylbut-2-enamido)acetamido)propan-2-yl)phenyl)amino)-6-ethyl-5-(ethyl(methyl)amino)pyrazine-2-carboxamide]

Reference: patent US20240262795A1, “PYRAZINE COMPOUNDS AS INHIBITORS OF FLT3” (Biomea Fusion, Inc., priority 2021, published 2024)
